Test results from patent US20220401385A1, “Combination Therapy Based on PD-1 Signaling Inhibitors” (Kyoto University, priority 2019, published 2022).

Tested on: MC38 cells
Experiment: MC38 mouse therapy model, tumor growth and survival
Format: in vivo, C57BL/6 mice
Procedure: FIG. 1-1 a) CD8^+ T cells or CD3^+ T cells were isolated from mice, and 2×10^5 cells were stimulated with CD3/CD28 beads in 96-well U plates. After 24 hours and 48 hours, cells and culture supernatant were collected, followed by measurement of spermidine (SPD) concentration by mass spectrometry. […] Ten days after inoculation, PD-L1 antibody (2 mg/kg), PD-L1 antibody+SPD (2 mg/kg), or SPD alone was administered. Subsequently, PD-L1 antibody was administered 4 times at a regular interval of 5 days, and SPD was administered 8 times at a regular interval of 3 days. Tumor growth curve and survival curve are shown. c) Draining lymph nodes (DLNs) of mice were isolated 13 days after tumor inoculation, and stained with antibodies to CD8, CD44 and CD62L. The number of cells in draining lymph node (cells/DLN) in each treatment group is shown at the left side. After being gated, CD8^+ T cells were fractionated with CD44 and CD62L into P1 to P4 cell populations. Percentages and cell numbers of P1 to P4 in each treatment group are shown. d) Tumor was isolated 13 days after tumor inoculation and treated with collagenase. Percentages and numbers per mg tumor of tumor-infiltrating CD8^+ CD45.2^+ cells are shown. For statistical analysis, ANOVA was used. * p<0.05, ** p<0.01, *** p<0.001, **** p<0.0001.
FIG. 8 MC38 cells (5×10^5) were intradermally inoculated into C57BL/6 mice. Ten days after inoculation, PD-L1 antibody (2 mg/kg), PD-L1 antibody+SPD (2 mg/kg) or PD-L1 antibody+SPM (6 mg/kg) was administered. Subsequently, […] was administered 4 times at a regular interval of 5 days, whereas SPD and SPM were administered 8 times at a regular interval of 3 days. Tumor growth curve is shown.
MC38 cells (5×10^5) were intradermally injected on the right flank. Ten days after inoculation, PD-L1 antibody (1-111A; prepared by and stored at the Department of Immunology and Genomic Medicine, Graduate School of Medicine, Kyoto University) (Immunology Letters 84 (2002) 57-62) (2 mg/kg), PD-L1 antibody+SPD (2 mg/kg) or SPD alone was administered to mice. Subsequently, PD-L1 antibody was administered 4 times at a regular interval of 5 days, and SPD was administered 8 times at a regular interval of 3 days. Tumors were measured on every alternate day, and tumor volumes were calculated using the formula for typical ellipsoid, π×(length×breadth×height/6).

NCCCNCCCCNCCCN [SPM, spermine]
effectiveness compared with SPD in enhancing the antitumor effect of PD-1 inhibitory antibody (SPM 6 mg/kg versus SPD 2 mg/kg, each + PD-L1 antibody, MC38): slightly less effective than SPD | enhancement of the antitumor effect of PD-1 inhibitory antibody (SPM (6 mg/kg) + PD-L1 antibody (2 mg/kg), MC38 in C57BL/6 mice): induced to some extent an enhancement
